Reference: patent US20210269451A1, “PYRIDINYL HETEROCYCLYL COMPOUNDS FOR THE TREATMENT OF AUTOIMMUNE DISEASE” (Hoffmann-La Roche Inc., priority 2018, published 2021)

Molecular target: T1, hERG channel (Homo sapiens, UniProt Q12809)
T1 construct: expressed in transfected cells; host or cells: CHO (Chinese hamster ovary), CHOhERG
Experiment: hERG channel inhibition assay (patch-clamp, CHOhERG cells);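 for hERG IC20/TLR7 IC50: ratio above 30 indicates an adequate safety window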;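 for hERG IC20/TLR8 IC50: ratio above 30 indicates an adequate safety window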
Type: cell-based
Details: for IC50 / IC20: CHOhERG cells, whole-cell patch-clamp; for IC20: human, CHO cells stably expressing hERG (CHOhERG); for hERG IC20/TLR7 IC50 / hERG IC20/TLR8 IC50 / hERG IC20/TLR9 IC50: safety ratio
Description: hERG channel inhibition assay:
The hERG K^+ channels were cloned in humans and stably expressed in a CHO (Chinese hamster ovary) cell line. CHOhERG cells were used for patch-clamp (voltage-clamp, whole-cell) experiments. Cells were stimulated by a voltage pattern to activate hERG channels and conduct IKhERG currents (rapid delayed outward rectifier potassium current of the hERG channel). After the cells were stabilized for a few minutes, the amplitude and kinetics of IKhERG were recorded at a stimulation frequency of 0.1 Hz (6 bpm). Thereafter, the test compound was added to the preparation at increasing concentrations. For each concentration, an attempt was made to reach a steady-state effect, usually, this was achieved within 3-10 min at which time the next highest concentration was applied. The amplitude and kinetics of IKhERG are recorded in each concentration of the drug which were compared to the control values (taken as 100%). (references: Redfern W S, Carlsson L, Davis A S, Lynch W G, MacKenzie I, Palethorpe S, Siegl P K, Strang I, Sullivan A T, Wallis R, Camm A J, Hammond T G. 2003; Relationships between preclinical cardiac electrophysiology, clinical QT interval prolongation and torsade de pointes for a broad range of drugs: evidence for a provisional safety margin in drug development. Cardiovasc. Res. 58:32-45, Sanguinetti M C, Tristani-Firouzi M. 2006; hERG potassium channels and cardiac arrhythmia. Nature 440:463-469, Webster R, Leishman D, Walker D. 2002; Towards a drug concentration effect relationship for QT prolongation and torsades de pointes. Curr. Opin. Drug Discov. Devel. 5:116-26).

T1 sequence (Q12809 whole entry): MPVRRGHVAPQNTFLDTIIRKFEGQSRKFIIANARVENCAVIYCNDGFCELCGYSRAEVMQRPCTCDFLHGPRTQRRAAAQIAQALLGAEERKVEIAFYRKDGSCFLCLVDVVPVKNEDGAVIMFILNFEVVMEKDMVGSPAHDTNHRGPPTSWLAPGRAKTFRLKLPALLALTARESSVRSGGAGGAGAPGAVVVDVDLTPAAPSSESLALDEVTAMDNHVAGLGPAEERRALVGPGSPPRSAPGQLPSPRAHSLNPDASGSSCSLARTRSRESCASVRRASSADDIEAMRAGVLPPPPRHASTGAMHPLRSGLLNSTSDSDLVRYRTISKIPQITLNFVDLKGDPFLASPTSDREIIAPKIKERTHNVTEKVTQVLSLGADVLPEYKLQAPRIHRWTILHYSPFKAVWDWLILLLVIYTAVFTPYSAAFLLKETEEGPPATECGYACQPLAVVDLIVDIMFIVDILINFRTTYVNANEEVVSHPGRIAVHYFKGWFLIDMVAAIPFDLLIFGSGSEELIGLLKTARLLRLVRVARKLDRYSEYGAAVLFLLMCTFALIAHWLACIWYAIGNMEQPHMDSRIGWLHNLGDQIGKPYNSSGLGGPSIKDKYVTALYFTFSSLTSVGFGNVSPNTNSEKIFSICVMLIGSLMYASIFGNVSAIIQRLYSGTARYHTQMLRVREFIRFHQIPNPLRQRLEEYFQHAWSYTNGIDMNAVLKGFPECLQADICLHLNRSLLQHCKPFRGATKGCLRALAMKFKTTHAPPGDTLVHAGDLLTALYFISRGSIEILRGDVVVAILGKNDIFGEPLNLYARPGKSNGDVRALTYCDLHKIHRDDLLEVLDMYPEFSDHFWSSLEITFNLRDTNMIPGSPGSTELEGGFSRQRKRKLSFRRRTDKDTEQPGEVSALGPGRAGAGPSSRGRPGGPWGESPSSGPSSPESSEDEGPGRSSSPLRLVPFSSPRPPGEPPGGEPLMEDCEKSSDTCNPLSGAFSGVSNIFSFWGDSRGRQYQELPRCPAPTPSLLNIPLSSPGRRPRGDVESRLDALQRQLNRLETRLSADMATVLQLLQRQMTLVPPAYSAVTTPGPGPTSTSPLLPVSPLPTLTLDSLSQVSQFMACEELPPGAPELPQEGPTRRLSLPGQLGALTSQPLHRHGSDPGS

Structure (SMILES)	IC50	IC20	hERG IC20/TLR7 IC50	hERG IC20/TLR8 IC50	hERG IC20/TLR9 IC50
Cc1cc(N2CC3(CN(C[C@H]4CN(c5ccc(C#N)c6ncccc56)C[C@@H](C)O4)C3)C2)cc(CO)n1 [Example 1, 5-[(2S,6R)-2-[[2-[2-(hydroxymethyl)-6-methyl-4-pyridyl]-2,6-diazaspiro[3.3]heptan-6-yl]methyl]-6-methyl-morpholin-4-yl]quinoline-8-carbonitrile]	> 20 µM	> 10 µM	>357.1	>123.5	>294.1
Cc1cc(NC2CCN(C[C@H]3CN(c4ccc(C#N)c5ncccc45)C[C@@H](C)O3)CC2)cc(CO)n1 [Example 5]	> 20 µM	7.18 µM	121.8	217.7	224.5
Cc1cc(NC2CCN(C[C@H]3CN(c4ccc(C#N)c5ncccc45)C[C@@H](C)O3)C2)cc(CO)n1 (some centres unmarked) [Example 6]	> 20 µM	5.83 µM	132.4	109.9	142.1
Cc1cc(NC2CN(C[C@H]3CN(c4ccc(C#N)c5ncccc45)C[C@@H](C)O3)C2)cc(C)n1 [Example 7]	> 20 µM	> 10 µM	>384.6	>322.6	>256.4
Cc1cc(N2CC(NC[C@H]3CN(c4ccc(C#N)c5ncccc45)C[C@@H](C)O3)C2)cc(CO)n1 [Example 30]	> 10 µM	4.51 µM	69.4	322.0	51.2
C[C@@H]1CN(c2ccc(C#N)c3ncccc23)C[C@H](CN2CCN(c3cc(N)nc(CO)c3)CC2)O1 [Example 45, 5-[(2S,6R)-2-[[4-[2-amino-6-(hydroxymethyl)-4-pyridyl]piperazin-1-yl]methyl]-6-methyl-morpholin-4-yl]quinoline-8-carbonitrile]	> 20 µM	> 10 µM	>256.4	>714.3	>109.9
CC(O)c1cc(N2CC3(CN(C[C@H]4CN(c5ccc(C#N)c6ncccc56)C[C@@H](C)O4)C3)C2)ccn1 (stereo partly drawn) [Example 46, 5-[(2S,6R)-2-[[2-[2-(1-hydroxyethyl)-4-pyridyl]-2,6-diazaspiro[3.3]heptan-6-yl]methyl]-6-methyl-morpholin-4-yl]quinoline-8-carbonitrile]	> 10 µM	4.69 µM	146.6	52.1	146.6
